This is an account of results in PubChem BioAssay (NCI).

Among the test systems are A549 NSCLC; ACHN renal; KM12 colon; M14 melanoma; MALME-3M melanoma; NCI-H460 lung; NCI/ADR-RES ovarian; OVCAR-3 ovarian; RXF 393 renal; TK-10 renal.
Common to all, as to assay: inhibition of tumour cell growth, NCI panel, 48 h

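1) Cells in 96-well plates. 2) Compound, 48 h, 5 concentrations. 3) Linear interpolation between surrounding doses. 4) Unreached endpoint = highest concentration. GI50 = concentration required for 50% inhibition of growth. TGI denotes the concentration required for complete inhibition of growth.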

Consider `O=c1c2ccc(S(=O)(=O)c3ccc4c(=O)n5c6ccccc6nc5c5cccc3c45)c3cccc(c32)c2nc3ccccc3n12`, for which the TGI is over 100 µM in the experiment with A549 NSCLC; 30.2 µM in the experiment on ACHN renal; over 100 µM with KM12 colon; over 100 µM in the experiment on M14 melanoma; over 100 µM in the experiment on MALME-3M melanoma; over 100 µM with NCI-H460 lung. In addition, the TGI in the experiment on NCI/ADR-RES ovarian is over 100 µM; in the experiment with OVCAR-3 ovarian it was over 100 µM; in the experiment on RXF 393 renal, 34.5 µM; in the experiment with TK-10 renal, 50.3 µM.
With `CCCCC(CCCCCC(CCCC)NCc1ccc2c(c1)OCO2)NCc1ccc2c(c1)OCO2` (stereo not given), the GI50 with A549 NSCLC was 0.426 µM; in the experiment on ACHN renal, 1.17 µM; in the experiment with KM12 colon, 0.232 µM; in the experiment on M14 melanoma, 0.182 µM; with MALME-3M melanoma it was 1.09 µM; in the experiment on NCI-H460 lung, 0.236 µM. Besides, the GI50 with NCI/ADR-RES ovarian was 0.711 µM; with OVCAR-3 ovarian, 0.936 µM; in the experiment on RXF 393 renal, 0.213 µM; in the experiment on TK-10 renal, 1.43 µM. In addition, the TGI in the experiment with A549 NSCLC came out at 1.02 µM; in the experiment with ACHN renal, 2.4 µM; with KM12 colon, 0.51 µM; in the experiment with M14 melanoma it was 0.324 µM; in the experiment on MALME-3M melanoma, 2.56 µM; in the experiment on NCI-H460 lung, 0.519 µM. Moreover, the TGI in the experiment with NCI/ADR-RES ovarian is 1.93 µM; in the experiment on OVCAR-3 ovarian, 2.25 µM; in the experiment with RXF 393 renal, 0.413 µM; with TK-10 renal, 2.88 µM.
`O=C1/C=C/[C@@H](O)[C@@H]2C[C@@H](O)C[C@H]2/C=C/CCC[C@H](CCc2cccc3ccccc23)O1`: the GI50 in the experiment on A549 NSCLC was 0.0411 µM; with ACHN renal it was 0.305 µM; in the experiment on KM12 colon it was 0.032 µM; in the experiment with M14 melanoma, 0.0492 µM; with MALME-3M melanoma, 0.036 µM; in the experiment on NCI-H460 lung it was 0.274 µM. Moreover, the GI50 in the experiment on NCI/ADR-RES ovarian was 0.0389 µM; in the experiment with OVCAR-3 ovarian, 0.0395 µM; in the experiment with RXF 393 renal, 0.0227 µM; with TK-10 renal it was 0.0861 µM. For the same compound, the TGI in the experiment with A549 NSCLC turned out to be 13.2 µM; in the experiment with ACHN renal it was 12.5 µM; in the experiment with KM12 colon, 0.959 µM; in the experiment on M14 melanoma, 8.58 µM; with MALME-3M melanoma it was 0.245 µM; with NCI-H460 lung, 12.2 µM. Also, the TGI with NCI/ADR-RES ovarian was 1.86 µM; with OVCAR-3 ovarian, 1.83 µM; with RXF 393 renal, 0.0674 µM; in the experiment on TK-10 renal it was 0.328 µM.
As to `Cn1c(=O)c(Oc2ccc(F)cc2F)cc2cnc(NC(C)(C)CO)nc21`, the GI50 in the experiment on A549 NSCLC, in the experiment with ACHN renal, in the experiment on KM12 colon, with M14 melanoma, in the experiment with MALME-3M melanoma and in the experiment on NCI-H460 lung was over 25 µM in each case. For the same compound, the GI50 in the experiment on NCI/ADR-RES ovarian, in the experiment with OVCAR-3 ovarian, in the experiment with RXF 393 renal and in the experiment with TK-10 renal was over 25 µM in each case. Also, the TGI in the experiment on A549 NSCLC, in the experiment on ACHN renal, in the experiment with KM12 colon, in the experiment with M14 melanoma, with MALME-3M melanoma and with NCI-H460 lung was over 25 µM throughout. Also, the TGI in the experiment on NCI/ADR-RES ovarian, in the experiment on OVCAR-3 ovarian, in the experiment with RXF 393 renal and in the experiment with TK-10 renal was over 25 µM in each case.
`O=C(Nc1ccc(Cc2ccccc2)cc1)Nc1nn(C(=O)Nc2ccc(Cc3ccccc3)cc2)c2ccccc12`: the GI50 with A549 NSCLC, in the experiment on ACHN renal, in the experiment on KM12 colon, in the experiment with M14 melanoma, in the experiment with MALME-3M melanoma and with NCI-H460 lung was over 100 µM in each case. The GI50 in the experiment on NCI/ADR-RES ovarian is over 100 µM; in the experiment with OVCAR-3 ovarian, over 100 µM; in the experiment on RXF 393 renal it was 30.4 µM; in the experiment on TK-10 renal, over 100 µM. Also, the TGI in the experiment on A549 NSCLC, with ACHN renal, in the experiment on KM12 colon, in the experiment on M14 melanoma, in the experiment on MALME-3M melanoma and with NCI-H460 lung was over 100 µM in each case. Moreover, the TGI in the experiment with NCI/ADR-RES ovarian, in the experiment on OVCAR-3 ovarian, in the experiment on RXF 393 renal and in the experiment with TK-10 renal was over 100 µM throughout.
As to `Cc1c2ccn(O)cc2c(C)c2c1nc1ccccc12`, the TGI in the experiment on A549 NSCLC was over 100 µM; with ACHN renal, over 85.7 µM; with KM12 colon it was over 100 µM; in the experiment on M14 melanoma it was over 100 µM; in the experiment on MALME-3M melanoma, over 41.8 µM; with NCI-H460 lung it was 37.9 µM. Also, the TGI was over 100 µM with NCI/ADR-RES ovarian, over 81.7 µM in the experiment on OVCAR-3 ovarian, 22.6 µM in the experiment with RXF 393 renal and over 66.1 µM in the experiment on TK-10 renal.
In the case of `COC1C(O)CC(OC2CC(OC3CC(O[C@@H]4C(=O)c5c(cc6cc(OC7CC(OC8CC(O)C(O)C(C)O8)C(O)C(C)O7)c(C)c(O)c6c5O)CC4[C@H](OC)C(=O)O)OC(C)C3O)OC(C)C2O)OC1C` (stereo not given in full), the GI50 in the experiment on A549 NSCLC is 1.66 µM; in the experiment on ACHN renal, 1.09 µM; in the experiment with KM12 colon, 1.89 µM; in the experiment with M14 melanoma, 3.14 µM; in the experiment on MALME-3M melanoma it was 2.37 µM; in the experiment with NCI-H460 lung, 1.31 µM. The GI50 is 10.3 µM in the experiment with NCI/ADR-RES ovarian, 2.06 µM in the experiment with OVCAR-3 ovarian, 1.1 µM in the experiment on RXF 393 renal and 4.56 µM in the experiment on TK-10 renal. Also, the TGI in the experiment with A549 NSCLC is over 33.3 µM; in the experiment on ACHN renal, over 33.3 µM; with KM12 colon it was over 33.3 µM; in the experiment on M14 melanoma, over 33.3 µM; with MALME-3M melanoma, 28.6 µM; in the experiment on NCI-H460 lung it was over 33.3 µM. Further, the TGI in the experiment with NCI/ADR-RES ovarian was over 33.3 µM; with OVCAR-3 ovarian it was over 33.3 µM; in the experiment with RXF 393 renal, 4.22 µM; in the experiment on TK-10 renal, over 33.3 µM.
For `CN(CCCCCl)P(=O)(OCCS(=O)(=O)CC(NC(=O)CCC(N)C(=O)O)C(=O)NC(C(=O)O)c1ccccc1)OCC1OC(n2ccc(N)nc2=O)C(O)C1O` (stereo not given), the GI50 in the experiment on A549 NSCLC was 4.45 µM; with ACHN renal, 16.7 µM; in the experiment with KM12 colon, 27.4 µM; with M14 melanoma, 4.37 µM; in the experiment with MALME-3M melanoma, 12.6 µM; in the experiment with NCI-H460 lung, 6.4 µM. Also, the GI50 is 17.8 µM in the experiment with NCI/ADR-RES ovarian, 33.7 µM in the experiment on OVCAR-3 ovarian, over 75 µM in the experiment on RXF 393 renal and 73.4 µM in the experiment on TK-10 renal. Besides, the TGI in the experiment with A549 NSCLC, with ACHN renal, with KM12 colon, with M14 melanoma, in the experiment on MALME-3M melanoma and in the experiment on NCI-H460 lung was over 75 µM throughout. The TGI with NCI/ADR-RES ovarian, with OVCAR-3 ovarian, with RXF 393 renal and in the experiment with TK-10 renal was over 75 µM throughout.
In the case of `CC1(C)S[C@@H]2[C@H](N3C(=O)c4ccccc4C3=O)CN2[C@H]1NC(=O)N[C@@H]1N2C[C@@H](N3C(=O)c4ccccc4C3=O)[C@H]2SC1(C)C`, the TGI with A549 NSCLC, in the experiment with ACHN renal, with KM12 colon, in the experiment on M14 melanoma, with MALME-3M melanoma and with NCI-H460 lung was over 100 µM throughout. For the same compound, the TGI was over 100 µM in the experiment on NCI/ADR-RES ovarian, over 100 µM in the experiment on OVCAR-3 ovarian, 82.1 µM in the experiment on RXF 393 renal and over 100 µM in the experiment on TK-10 renal.
Regarding `O=C1CSC(=S)N1c1ccco1`, the TGI in the experiment with A549 NSCLC is over 100 µM; in the experiment on ACHN renal, over 100 µM; in the experiment with KM12 colon, 52.6 µM; in the experiment with M14 melanoma, over 100 µM; in the experiment with MALME-3M melanoma it was over 100 µM; in the experiment with NCI-H460 lung it was over 100 µM. Moreover, the TGI with NCI/ADR-RES ovarian, with OVCAR-3 ovarian, in the experiment on RXF 393 renal and in the experiment on TK-10 renal was over 100 µM throughout.
Turning to `O=c1oc2ccc(I)cc2c(=O)n1-c1ccc(F)cc1F`, the GI50 is 2.93 µM in the experiment with A549 NSCLC; 2.52 µM in the experiment on ACHN renal; 2.51 µM in the experiment on KM12 colon; 1.71 µM in the experiment with M14 melanoma; 1.94 µM with MALME-3M melanoma; 2.8 µM with NCI-H460 lung. Further, the GI50 was 2.64 µM in the experiment with NCI/ADR-RES ovarian, 2.67 µM in the experiment with OVCAR-3 ovarian, 2.44 µM in the experiment with RXF 393 renal and 4.43 µM with TK-10 renal. Besides, the TGI was determined as 19.8 µM with A549 NSCLC; 8.42 µM in the experiment with ACHN renal; 6.8 µM in the experiment with KM12 colon; 5.88 µM in the experiment on M14 melanoma; 5.89 µM in the experiment on MALME-3M melanoma; 12.8 µM in the experiment with NCI-H460 lung. The TGI with NCI/ADR-RES ovarian was 13.4 µM; in the experiment with OVCAR-3 ovarian it was 13 µM; in the experiment with RXF 393 renal, 6.09 µM; in the experiment with TK-10 renal it was 10.6 µM.
Consider `O=C(CCl)NCCNc1nccc(Nc2ccc(S(=O)(=O)Nc3ccccn3)cc2)n1`, for which the GI50 with A549 NSCLC is 3.4 µM; in the experiment with ACHN renal, 2.6 µM; in the experiment on KM12 colon it was 3.12 µM; in the experiment with M14 melanoma, 1.72 µM; in the experiment with MALME-3M melanoma, 2.3 µM; in the experiment on NCI-H460 lung, 2.39 µM. The GI50 with NCI/ADR-RES ovarian is 2.96 µM; with OVCAR-3 ovarian it was 1.77 µM; in the experiment with RXF 393 renal, 2.61 µM; with TK-10 renal, 3.04 µM. The TGI with A549 NSCLC amounted to 13 µM; with ACHN renal it was 10.8 µM; in the experiment with KM12 colon, 11.6 µM; in the experiment on M14 melanoma it was 4.69 µM; with MALME-3M melanoma, 10.5 µM; with NCI-H460 lung, 7.22 µM. Besides, the TGI in the experiment with NCI/ADR-RES ovarian was found to be 83.2 µM; in the experiment with OVCAR-3 ovarian, 6.17 µM; in the experiment on RXF 393 renal, 7.83 µM; in the experiment on TK-10 renal it was 10.3 µM.
